According to the supplement of paper PMC10307832:

Assays:
Test in all cases: relative viability (nuclei count vs DMSO), 5 days (fraction); higher = more cells survive
[1] = compound: CN(c1ncccc1CNc1nc(Nc2ccc3c(c2)CC(=O)N3)ncc1C(F)(F)F)S(C)(=O)=O
In short: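 Viability was read as treated-well nuclei divided by vehicle-well nuclei, using the median across plates. Lung cancer cell lines in 1536-well plates were kept overnight at 37 °C, pinned with five √10-spaced library-drug doses, and after 5 days were Hoechst-stained, imaged at 4× and counted in MetaXpress. Plates passed only with control CV below 25% and at least one doubling.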

[2] = compound: CN(c1ncccc1CNc1nc(Nc2ccc3c(c2)CC(=O)N3)ncc1C(F)(F)F)S(C)(=O)=O + CC1(C)CCC(c2ccc(Cl)cc2)=C(CN2CCN(c3ccc(C(=O)NS(=O)(=O)c4ccc(N[C@H](CCN5CCOCC5)CSc5ccccc5)c(S(=O)(=O)C(F)(F)F)c4)cc3)CC2)C1 [Navitoclax] (partner 0.5 µM)
In short: (§1)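 One day after seeding in 1536-well plates, lung cancer cell lines were dosed by pin tool. Dosing was either single-drug or a fixed anchor-drug dose plus five library-drug doses (not always all listed) in √10 steps. After 5 days, nuclei were stained in one fix-and-stain step and counted on 4× images, and relative viability is the nuclei count of treated wells over that of vehicle wells, given as the median of duplicate plates.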

[3] = compound: CN(c1ncccc1CNc1nc(Nc2ccc3c(c2)CC(=O)N3)ncc1C(F)(F)F)S(C)(=O)=O + Cc1cc(Nc2cc(N3CCN(C)CC3)nc(Sc3ccc(NC(=O)C4CC4)cc3)n2)n[nH]1 [Tozasertib] (partner 0.1 µM)
In short: as §1

[4] = compound: CN(c1ncccc1CNc1nc(Nc2ccc3c(c2)CC(=O)N3)ncc1C(F)(F)F)S(C)(=O)=O + N=C(N)NC(=N)NCCc1ccccc1 [Phenformin] (partner 250 µM)
In short: as §1

Cell Line | relative viability ([1]; 0.01 µM) | relative viability ([1]; 0.03162 µM) | relative viability ([1]; 0.1 µM) | relative viability ([1]; 0.3162 µM) | relative viability ([1]; 1 µM) | relative viability ([2]; first compound 0.01 µM) | relative viability ([2]; first compound 0.03162 µM) | relative viability ([2]; first compound 0.1 µM) | relative viability ([2]; first compound 0.3162 µM) | relative viability ([2]; first compound 1 µM) | relative viability ([3]; first compound 0.01 µM) | relative viability ([3]; first compound 0.03162 µM) | relative viability ([3]; first compound 0.1 µM) | relative viability ([3]; first compound 0.3162 µM) | relative viability ([3]; first compound 1 µM) | relative viability ([4]; first compound 0.01 µM) | relative viability ([4]; first compound 0.03162 µM) | relative viability ([4]; first compound 0.1 µM) | relative viability ([4]; first compound 0.3162 µM) | relative viability ([4]; first compound 1 µM)
LOU-NH91 | 1.04 | 0.976 | 0.925 | 1.02 | 1.02 | 0.695 | 0.751 | 0.772 | 0.762 | 0.793 | 0.641 | 0.674 | 0.647 | 0.645 | 0.576 | 0.704 | 0.776 | 0.726 | 0.716 | 0.792
LU99A | 0.964 | 1.06 | 1.04 | 1.17 | 1.01 | 0.737 | 0.955 | 0.824 | 0.91 | 0.788 | 0.319 | 0.301 | 0.297 | 0.258 | 0.246 | 0.874 | 0.706 | 0.952 | 0.924 | 1.15
LXF-289 | 1.09 | 1.05 | 1.01 | 0.991 | 1.01 | 0.988 | 1.04 | 0.962 | 0.929 | 0.911 | 0.176 | 0.178 | 0.242 | 0.18 | 0.17 | 0.542 | 0.55 | 0.538 | 0.521 | 0.525
NCI-H23 | 1.02 | 0.963 | 1.06 | 1.06 | 0.973 | 0.867 | 1.04 | 1.08 | 0.969 | 0.837 | 0.494 | 0.356 | 0.407 | 0.295 | 0.351 | 0.856 | 0.835 | 0.864 | 0.787 | 0.734
NCI-H322M | 1 | 1.03 | 0.917 | 1.12 | 1.12 | 1.3 | 1.34 | – | 1.51 | 1.26 | 0.505 | 0.504 | 0.491 | 0.504 | 0.472 | 0.88 | 0.828 | 0.827 | 0.89 | 0.875
NCI-H441 | 1.09 | 1.15 | 0.901 | 1.22 | 0.767 | 0.476 | 0.687 | 0.479 | 0.706 | 0.374 | 0.697 | 0.628 | 0.581 | 0.583 | 0.512 | 0.926 | 0.859 | 0.805 | 0.864 | 0.787
NCI-H460 | 1 | 1.1 | 0.979 | 1 | 1.02 | 1.18 | 1.46 | 1.13 | 1.19 | 1.11 | 0.499 | 0.464 | 0.491 | 0.137 | 0.396 | 0.599 | 0.75 | 0.499 | 0.484 | 0.495
NCI-H520 | 1.04 | 1.2 | 1.03 | 1.17 | 1.18 | 1.05 | 1.12 | 1.2 | 1.19 | 1.17 | 0.485 | 0.474 | 0.467 | 0.546 | 0.429 | 0.601 | 0.777 | 0.57 | 0.678 | 0.552
